From patent US9907842B2, “Cytotoxic T lymphocyte inducing immunogens for prevention treatment and diagnosis of cancer” (Immunotope, Inc., priority 2009, dated 2018)

Assays:
Assay type in all cases: cell-based, human
[1] = tested on: T2 cells loaded with the corresponding synthetic peptide and HLA-A2+ lung cancer cells lines [CRL-5865, CRL-5944 and NCI-H522]; test: Interferon-γ ELISpot with peptide-specific CTL from healthy HLA-A2+ donors; details: CTL from PBMC of two healthy HLA-A2+ donors; FIG. 1
Procedure: (§1) PBMC were purified from HLA-A2^+ normal donor blood using lymphocyte separation media (Cappel ICN Biomedical, Aurora, Ohio). PBMC (5.3×10^6) were added to individual wells of a 24-well cluster plate (Costar, Corning, N.Y.) in 1.0 ml of serum-free AIM-V medium (Life Technologies) and allowed to adhere for 60 min at 37° C. Non-adherent cells were removed and saved as a source of effector T cells. Adherent PBMC (˜8.3×10^5/well) were then pulsed with […] synthetic peptides in serum-free AIM-V medium containing […] β2-microglobulin (Calbiochem-Novabiochem, San Diego, Calif.) and incubated for 2 h at 37° C. Unbound peptides were aspirated and the wells washed with media.
(§2) Monocyte-derived DC were generated as follows. PBMC (5.3×10^7) were allowed to adhere in T-75 flasks (Corning) in 10 ml of serum-free AIM-V medium for 60 min at 37° C. Non-adherent cells were collected as a source of effector T cells and pooled with the previous collection above. Adherent monocytes in flasks were then exposed to recombinant human granulocyte macrophage colony stimulating factor (GM-CSF, 25 ng/ml; Peprotech) and recombinant human IL-4 (100 ng/ml; Peprotech) in 10 ml of AIM-V medium containing 10% heat-inactivated FBS. DC obtained by this method [immature DC (iDC)] are characterized by expression of low levels of CD83, CD80, CD86, and HLA class I and class II molecules (data not shown).
(§3) Mature DC (mDC) were obtained by exposing day 5 DC cultures to recombinant soluble CD40 ligand (sCD40L; Peprotech) at […] for 24 h in the presence of 25 ng/ml GM-CSF and are characterized by expression of high levels of CD80, CD86, and HLA class I and class II molecules.mDC were harvested, washed, pulsed with 5 mg/ml peptide in serum-free AIM-V medium and irradiated (5000 rad) prior to use as stimulators.
(§4) The protocol used here is a modification of the method described by Plebanski et al. (Eur. J. Immunol. 25:1783, (1995)). CTL to peptide were generated by 3±4 cycles of stimulation with peptide-loaded APC. For the first round of stimulation (day 0), T cells or non-adherent PBMC from above (2.3×10^6/ml or 4.3×10^6 per well) were added in bulk (CD4^+, CD8^+, NK, etc.) to adherent PBMC-loaded peptides in serum-free medium ([…]), β2-microglobulin ([…]) (Calbiochem-Novabiochem), recombinant human IL-7 (5 ng/ml) (Peprotech) and keyhole limpet hemocyanin (5 mg/ml) (Sigma, St Louis, Mo.). Cultures were re-stimulated with iDC every 7 days, pulsed with varying amounts of peptide (second round 25 mg/ml, third round 10 mg/ml) and irradiated (5000 rad) on day 8. At each re-stimulation, the T cells were transferred to new plates by first aspirating 70% of spent media in wells and then transferring the pooled contents to a new plate. Fresh IL-7 was added at each re-stimulation. The responder:stimulator (T cell:DC) ratio was set at 20 for each stimulation. Recombinant human IL-2 (10 U/ml) was added on day 5 after each re-stimulation.
(§5) Prior to CTL assays, the T cells were harvested and CD8^+ T cells were purified by positive selection using CD8^+ microbeads immunomagnetic cell separation with MACS kit (Miltenyi Biotec, Auburn, Calif.). If a fourth round of stimulation was necessary following CTL analysis, the CTL were pulsed as before, except with 5±10 mg/ml of peptide.
(§6) The peptide specific CTLs were assessed for recognition and/or lysis of peptide-loaded T2 cells as well as various lung normal and tumor target cells. After two to four rounds of restimulation, cultures were tested for cytotoxic activity against the peptide loaded and normal and tumor targets. Peptide-pulsed T2 cells (1 μg/ml peptide for 2 hr at 37° C.), irrelevant HLA-A2 peptides pulsed T2 cells were used as controls. […]

[2] = tested on: T2 cells loaded with the corresponding synthetic peptide and HLA-A2+ lung cancer cells lines [CRL-5865, CRL-5944 and NCI-H522]; test: Granzyme B ELISpot with peptide-specific CTL from healthy HLA-A2+ donors; details: CTL from PBMC of two healthy HLA-A2+ donors; FIG. 2
Procedure: as §1, §2, §3, §4, §5, §6

[3] = tested on: T2 cells loaded with the corresponding synthetic peptide and HLA-A2+ lung cancer cells lines [CRL-5865, CRL-5944 and NCI-H522]; test: Interferon-γ ELISpot with peptide-specific CTL from a HLA-A2+ lung cancer patient; details: CTL from PBMC of a HLA-A2+ donor with lung cancer; FIG. 3A
Procedure: as §4, with “Recombinant human IL-2 (10 U/ml) was added on day 5 after each re-stimulation.” left out
(§7) The peptide specific CTLs were assessed for recognition and/or lysis of peptide-loaded T2 cells as well as various lung normal and tumor target cells. […] Recognition of specific antigens by peptide-specific CTL was measured by production of IFN-gamma and granzyme in the ELISPOT assay (Ramakrishna, V., M. M. Ross, M. Petersson, C. C. Gatlin, C. E. Lyons, C. L. Miller, H. E. Myers, M. McDaniel, L. R. Karns, R. Kiessling, G. Parmiani, and D.C. Flyer. (2003) Int Immunol 15:751-763; Morse, M. A., S. K. Nair, P. J. Mosca, A. C. Hobeika, T. M. Clay, Y. Deng, D. Boczkowski, A. Proia, D. Neidzwiecki, P. A. Clavien, H. I. Hurwitz, J. Schlom, E. Gilboa, and H. K. Lyerly. (2003) Cancer Invest 21:341-349). […]
PBMC from a HLA-A2^+ donor with lung cancer were in vitro stimulated with synthetic peptides corresponding to each of the three selected lung cancer epitopes (SEQ ID 82, SEQ ID 34 and SEQ ID 67). […] Interferon-γ producing cells were quantitated using an Immunospot reader. […]

[4] = tested on: T2 cells loaded with the corresponding synthetic peptide and HLA-A2+ lung cancer cells lines [CRL-5865, CRL-5944 and NCI-H522]; test: Granzyme B ELISpot with peptide-specific CTL from a HLA-A2+ lung cancer patient; details: CTL from PBMC of a HLA-A2+ lung cancer patient; FIG. 3B
Procedure: The protocol used here is a modification of the method described by Plebanski et al. (Eur. J. Immunol. 25:1783, (1995)). CTL to peptide were generated by 3±4 cycles of stimulation with peptide-loaded APC. For the first round of stimulation (day 0), T cells or non-adherent PBMC from above (2.3×10^6/ml or 4.3×10^6 per well) were added in bulk (CD4^+, CD8^+, NK, etc.) to adherent PBMC-loaded peptides in serum-free medium ([…]), β2-microglobulin ([…]) (Calbiochem-Novabiochem), recombinant human IL-7 (5 ng/ml) (Peprotech) and keyhole limpet hemocyanin (5 mg/ml) (Sigma, St Louis, Mo.). Cultures were re-stimulated with iDC every 7 days, pulsed with varying amounts of peptide (second round 25 mg/ml, third round 10 mg/ml) and irradiated (5000 rad) on day 8. At each re-stimulation, the T cells were transferred to new plates by first aspirating 70% of spent media in wells and then transferring the pooled contents to a new plate. Fresh IL-7 was added at each re-stimulation. The responder:stimulator (T cell:DC) ratio was set at 20 for each stimulation. Recombinant human IL-2 (10 U/ml) was added on day 5 after each re-stimulation. […]
as §7
PBMC from a HLA-A2^+ lung cancer patient were in vitro stimulated with synthetic peptides corresponding to each of the three selected lung cancer epitopes (SEQ ID 82, SEQ ID 34 and SEQ ID 67). […] Granzyme B producing cells were quantitated using an Immunospot reader. […]

| Sequence | recognition of targets by peptide-specific CTL (Interferon-γ producing cells) [1] | cytolytic activity of peptide-specific CTL (Granzyme B producing cells) [2] | recognition of targets by peptide-specific CTL (Interferon-γ producing cells) [3] | cytolytic activity of peptide-specific CTL (Granzyme B producing cells) [4] |
| --- | --- | --- | --- | --- |
| KLIPFLEKL (listed as Homo sapiens) [SEQ ID 34] | recognize peptide loaded targets as well as lung cancer cells | are cytolytic | recognize peptide loaded targets as well as lung cancer cells | are cytolytic |
| VLVPVLVMV (listed as Homo sapiens) [SEQ ID 82] | recognize peptide loaded targets as well as lung cancer cells | are cytolytic | recognize peptide loaded targets as well as lung cancer cells | are cytolytic |
| GMYGKIAVMEL (listed as Homo sapiens) [SEQ ID 19] | recognize peptide loaded targets as well as lung cancer cells | are cytolytic |  |  |
| DQFQKVLSL (listed as Homo sapiens) [SEQ ID 08] | recognize peptide loaded targets as well as lung cancer cells | are cytolytic |  |  |
| KLSLVAAML (listed as Homo sapiens) [SEQ ID 36] | recognize peptide loaded targets as well as lung cancer cells | are cytolytic |  |  |
| KIYQWINEL (listed as Homo sapiens) [SEQ ID 29] | recognize peptide loaded targets as well as lung cancer cells | are cytolytic |  |  |
| KLGEFAKVLEL (listed as Homo sapiens) [SEQ ID 33] | recognize peptide loaded targets as well as lung cancer cells | are cytolytic |  |  |
| RLLEVPVML (listed as Homo sapiens) [SEQ ID 67] | recognize peptide loaded targets as well as lung cancer cells | are cytolytic | recognize peptide loaded targets as well as lung cancer cells | are cytolytic |
